Measurements taken from patent US20230159527A1, “COMPOUNDS AS BCL-2 INHIBITORS” (Fochon Pharmaceuticals, Ltd., priority 2020, published 2023).

System: Toledo cells
Experiment: Cell proliferation assay, Toledo cells (MTS, 72 h)
Format: cell-based
Conditions: Homo sapiens, Toledo cells, MTS, read-out: Toledo IC50
Method in brief: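 IC50 was derived from 490 nm absorbance after a 2 h MTS step. Before that, compounds at 1.5–10000 nM final (nine points) acted on Toledo cells for 72 h at 37 °C, 5% CO2. Cells were seeded at 30000/well in 10% FBS RPMI-1640 and rested 4 h before dosing.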

Structure (SMILES)	IC50 [nM]
CC(C)c1ccccc1C1CCCN1C1CC2(CCN(c3ccc(C(=O)NS(=O)(=O)c4cc5c(c([N+](=O)[O-])c4)N[C@@H](C4CCC(F)(F)CC4)CO5)c(Oc4cnc5[nH]cc(F)c5c4)c3)CC2)C1 (single isomer, unassigned) [Example D-47, N-(((S)-3-(4,4-difluorocyclohexyl)-5-nitro-3,4-dihydro-2H-benzo [b][1,4]oxazin-7-yl)sulfonyl)-2-((3-fluoro-1H-pyrrolo[2,3-b]pyridin-5-yl)oxy)-4-(2-((R or S)-2-(2-isopropylphenyl)pyrrolidin-1-yl)-7-azaspiro[3.5]nonan-7-yl)benzamide]	1
COc1nc2[nH]ccc2cc1Oc1cc(N2CCC3(CC2)CC(N2CCOC[C@H]2c2ccccc2C(C)C)C3)ccc1C(=O)NS(=O)(=O)c1cnc(NC[C@H]2CC[C@](C)(O)CC2)c([N+](=O)[O-])c1 (single isomer, unassigned) [Example A-125, N-((6-((((1r,4r)-4-hydroxy-4-methyl-cyclohexyl)methyl)amino)-5-nitropyridin-3-yl)sulfonyl)-4-(2-((R or S)-3-(2-isopropylphenyl)morpholino)-7-azaspiro[3.5]nonan-7-yl)-2-((6-methoxy-1H-pyrrolo[2,3-b]pyridin-5-yl)oxy)benzamide]	2
COCCNc1nc2[nH]ccc2cc1Oc1cc(N2CCC3(CC2)CC(N2CCC[C@H]2c2ccccc2C(C)C)C3)ccc1C(=O)NS(=O)(=O)c1cc2c(c([N+](=O)[O-])c1)N[C@@H]([C@H]1CC[C@](C)(O)CC1)CO2 (single isomer, unassigned) [Example D-56, N-(((S)-3-((1r,4S)-4-hydroxy-4-methylcyclohexyl)-5-nitro-3,4-dihydro-2H-benzo[b][1,4]oxazin-7-yl)sulfonyl)-4-(2-((R or S)-2-(2-isopropylphenyl)pyrrolidin-1-yl)-7-azaspiro[3.5]nonan-7-yl)-2-((6-((2-methoxyethyl)amino)-1H-pyrrolo[2,3-b]pyridin-5-yl)oxy)benzamide]	1
COCCOc1nc2[nH]ccc2cc1Oc1cc(N2CCC3(CC2)CC(N2CCC[C@H]2c2ccccc2C(C)C)C3)ccc1C(=O)NS(=O)(=O)c1cc2c(c([N+](=O)[O-])c1)N[C@@H](C[C@H]1CC[C@](C)(O)CC1)CO2 (single isomer, unassigned) [Example D-21, N-(((S)-3-(((1r,4S)-4-hydroxy-4-methylcyclohexyl)methyl)-5-nitro-3,4-dihydro-2H-benzo[b][1,4]oxazin-7-yl)sulfonyl)-4-(2-((R or S)-2-(2-isopropylphenyl)pyrrolidin-1-yl)-7-azaspiro[3.5]nonan-7-yl)-2-((6-(2-methoxyethoxy)-1H-pyrrolo[2,3-b]pyridin-5-yl)oxy) benzamide]	1
CC(C)c1ccccc1[C@@H]1CCCN1C1CC2(CCN(c3ccc(C(=O)NS(=O)(=O)c4cc5c(c([N+](=O)[O-])c4)N[C@@H]([C@H]4CC[C@](C)(O)CC4)CO5)c(Oc4cc5cc[nH]c5nc4OC[C@H]4CCN4C(=O)OC(C)(C)C)c3)CC2)C1 (single isomer, unassigned) [Example D-213, tert-butyl (R)-2-(((5-(2-(((S)-3-((1r,4S)-4-hydroxy-4-methylcyclohexyl)-5-nitro-3,4-dihydro-2H-benzo[b][1,4]oxazin-7-yl)sulfonyl)carbamoyl)-5-(2-((R or S)-2-(2-isopropylphenyl)pyrrolidin-1-yl)-7-azaspiro[3.5]nonan-7-yl)phenoxy)-1H-pyrrolo[2,3-b]pyridin-6-yl)oxy)methyl)azetidine-1-carboxylate]	1
CC(C)c1ccccc1[C@@H]1CCCN1C1CC2(CCN(c3ccc(C(=O)NS(=O)(=O)c4cc5c(c([N+](=O)[O-])c4)N[C@@H](C4CCOCC4)CO5)c(Oc4cnc5[nH]cc(F)c5c4)c3)CC2)C1 (single isomer, unassigned) [Example D-48, 2-((3-fluoro-1H-pyrrolo[2,3-b]pyridin-5-yl)oxy)-4-(2-((R or S)-2-(2-isopropylphenyl)pyrrolidin-1-yl)-7-azaspiro[3.5]nonan-7-yl)-N-(((S)-5-nitro-3-(tetrahydro-2H-pyran-4-yl)-3,4-dihydro-2H-benzo[b][1,4]oxazin-7-yl)sulfonyl) benzamide]	1
CC(C)c1ccccc1[C@@H]1COCCN1C1CC2(CCN(c3ccc(C(=O)NS(=O)(=O)c4cnc(NC[C@H]5CC[C@](C)(O)CC5)c([N+](=O)[O-])c4)c(Oc4cc5cc[nH]c5nc4OC(F)F)c3)CC2)C1 (single isomer, unassigned) [Example A-126, 2-((6-(difluoromethoxy)-1H-pyrrolo [2,3-b]pyridin-5-yl)oxy)-N-((6-((((1r,4r)-4-hydroxy-4-methylcyclo-hexyl)methyl)amino)-5-nitropyridin-3-yl)sulfonyl)-4-(2-((R or S)-3-(2-isopropylphenyl)morpholino)-7-azaspiro[3.5]nonan-7-yl) benzamide]	1
CC(C)c1ccccc1[C@@H]1CCCN1C1CC2(CCN(c3ccc(C(=O)NS(=O)(=O)c4cc5c(c([N+](=O)[O-])c4)N[C@H]([C@H]4CC[C@@H](O)CC4)CO5)c(Oc4cnc5[nH]cc(F)c5c4)c3)CC2)C1 (single isomer, unassigned) [Example D-43, 2-((3-fluoro-1H-pyrrolo[2,3-b]pyridin-5-yl)oxy)-N-(R)-3-((1s,4S)-4-hydroxycyclohexyl)-5-nitro-3,4-dihydro-2H-benzo[b][1,4]oxazin-7-yl)sulfonyl)-4-(2-((R or S)-2-(2-isopropylphenyl)pyrrolidin-1-yl)-7-azaspiro[3.5]nonan-7-yl)benzamide]	1

Same assay, conditions: Toledo cells, MTS, read-out: Toledo IC50

Structure (SMILES)	IC50 [nM]
CC(C)c1ccccc1C1COCCN1C1CC2(CCN(c3ccc(C(=O)NS(=O)(=O)c4cc5c(c([N+](=O)[O-])c4)S[C@@H](C4CCC(C)(O)CC4)CO5)c(Oc4cnc5[nH]cc(F)c5c4)c3)CC2)C1 (single isomer, unassigned) [Example E-6, 2-((3-fluoro-1H-pyrrolo[2,3-b]pyridin-5-yl)oxy)-N-(((S)-3-((1r,4S)-4-hydroxy-4-methylcyclohexyl)-5-nitro-2,3-dihydrobenzo [b][1,4]oxathiin-7-yl)sulfonyl)-4-(2-((R or S)-3-(2-isopropylphenyl)morpholino)-7-azaspiro[3.5]nonan-7-yl)benzamide]	1
CC(C)c1ccccc1[C@@H]1CCC[C@@H]1N1CC2(CCN(c3ccc(C(=O)NS(=O)(=O)c4cc5c(c([N+](=O)[O-])c4)N[C@@H]([C@H]4CC[C@](C)(O)CC4)CO5)c(Oc4cnc5[nH]cc(F)c5c4)c3)CC2)C1 (single isomer, unassigned) [Example D-28b, 2-((3-fluoro-1H-pyrrolo[2,3-b]pyridin-5-yl)oxy)-N-(((S)-3-((1r,4S)-4-hydroxy-4-methylcyclohexyl)-5-nitro-3,4-dihydro-2H-benzo[b] [1,4]oxazin-7-yl)sulfonyl)-4-(2-((1S,2S or 1R,2R)-2-(2-isopropylphenyl)cyclopentyl)-2,7-diazaspiro[3.5]nonan-7-yl)benzamide]	1
